Measured values published in the supplement of paper PMC11061612.

Key:
[1] = system: SK-LU-1 (Lung Adenocarcinoma); assay: Bliss excess, mean over the matrix (fraction); higher = more synergy
Method in brief: (§1)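 After 24 hours at 37°C and 5% CO2 in 1536-well plates, cells in DMEM/F12 or RPMI plus 10% FBS received two-drug dose matrices for 72 hours. Viability came from CellTiter-Glo 2.0 luminescence and was scaled as inhibition, anchored at 0 by vehicle wells and at 1 by blank wells. Combination Emax is taken as the second-highest inhibition in the matrix, and Bliss excess as the observed combination effect less EA + EB − EA·EB, with EA and EB the single-agent effects.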

[2] = system: SK-LU-1 (Lung Adenocarcinoma); assay: combination Emax (second highest fraction inhibited in the dose matrix, 72 h); higher = more inhibition; extreme values may be limits of the assay
Method in brief: as §1

[3] = system: DU-145 (Prostate Carcinoma); assay: as above
Method in brief: as §1

[4] = system: ALL-SIL (T-Lymphoblastic Leukemia); assay: Bliss excess, mean over the matrix (fraction); higher = more synergy
Method in brief: as §1

[5] = system: HCC1500 (Breast Carcinoma); assay: as above
Method in brief: as §1

[6] = system: G-401 (Other Solid Carcinomas); assay: as above
Method in brief: as §1

[7] = system: EJM (Plasma Cell Myeloma); assay: as above
Method in brief: as §1

[8] = system: CADO-ES1 (Ewing's Sarcoma); assay: as above
Method in brief: as §1

[9] = system: HCC1937 (Breast Carcinoma); assay: combination Emax (second highest fraction inhibited in the dose matrix, 72 h); higher = more inhibition; extreme values may be limits of the assay
Method in brief: as §1

[10] = system: NCI-H650 (Lung Adenocarcinoma); assay: as above
Method in brief: as §1

[11] = system: NCI-H1838 (Lung Adenocarcinoma); assay: as above
Method in brief: as §1

[12] = system: ALL-SIL (T-Lymphoblastic Leukemia); assay: as above
Method in brief: as §1

[13] = system: HCC2998 (Colorectal Carcinoma); assay: as above
Method in brief: as §1

[14] = system: HCC1500 (Breast Carcinoma); assay: as above
Method in brief: as §1

[15] = system: G-401 (Other Solid Carcinomas); assay: as above
Method in brief: as §1

[16] = system: OACM5-1 (Esophageal Adenocarcinoma); assay: as above
Method in brief: as §1

[17] = system: NCI-H2122 (Lung Adenocarcinoma); assay: as above
Method in brief: as §1

[18] = system: EJM (Plasma Cell Myeloma); assay: as above
Method in brief: as §1

[19] = system: NCI-H1092 (Small Cell Lung Carcinoma); assay: as above
Method in brief: as §1

Hey (Ovarian Carcinoma) = assay: as above
Method in brief: as §1
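Throughout, for Bliss excess, mean over the matrix: after 72 h of two-drug dosing.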

Row | Structure (SMILES) | Bliss excess [1] | combination Emax [2] | combination Emax [3] | Bliss excess [4] | Bliss excess [5] | Bliss excess [6] | Bliss excess [7] | Bliss excess [8] | combination Emax [9] | combination Emax [10] | combination Emax [11] | combination Emax [12] | combination Emax [13] | combination Emax [14] | combination Emax [15] | combination Emax [16] | combination Emax [17] | combination Emax [18] | combination Emax [19] | combination Emax (Hey (Ovarian Carcinoma))
1 | CN(CCO)CC[C@H](CSc1ccccc1)Nc1ccc(S(=O)(=O)NC(=O)c2ccc(N3CCC([C@@H](O)c4ccccc4-c4ccc(Cl)cc4)CC3)cc2)cc1S(=O)(=O)C(F)(F)F [AZD4320] + Nc1ccn([C@@H]2O[C@H](CO)[C@@H](O)C2(F)F)c(=O)n1 [Gemcitabine] (first compound max 1 µM, 7x7, partner max 0.3 µM) | -0.036 | 0.248 | 0.485 | – | – | – | – | – | – | – | – | – | – | – | – | – | – | – | – | –
2 | CN(CCO)CC[C@H](CSc1ccccc1)Nc1ccc(S(=O)(=O)NC(=O)c2ccc(N3CCC([C@@H](O)c4ccccc4-c4ccc(Cl)cc4)CC3)cc2)cc1S(=O)(=O)C(F)(F)F [AZD4320] + CCN(CCO)CCCOc1ccc2c(Nc3cc(CC(=O)Nc4cccc(F)c4)[nH]n3)ncnc2c1 [AZD2811] (first compound max 1 µM, 7x7, partner max 1 µM) | -0.0232 | 0.281 | – | -0.0124 | 0.0758 | 0.0082 | 0.0454 | -0.0732 | 0.489 | 0.157 | 0.216 | 1 | 0.753 | 0.997 | 0.517 | 0.398 | 0.794 | 0.406 | 0.866 | 0.254
3 | CN(CCO)CC[C@H](CSc1ccccc1)Nc1ccc(S(=O)(=O)NC(=O)c2ccc(N3CCC([C@@H](O)c4ccccc4-c4ccc(Cl)cc4)CC3)cc2)cc1S(=O)(=O)C(F)(F)F [AZD4320] + Cn1cnc2c(F)c(Nc3ccc(Br)cc3Cl)c(C(=O)NOCCO)cc21 [Selumetinib] (first compound max 1 µM, 7x7, partner max 3 µM) | – | – | 0.255 | -0.0006 | 0.0166 | 0.0907 | 0.072 | -0.0085 | 0.601 | 0.656 | 0.209 | 1 | 0.992 | 0.998 | 0.543 | 0.427 | 0.8 | 0.488 | 0.956 | 0.533
4 | Cc1cc2ncnn2cc1Nc1ncc2c(n1)n(C1CCOCC1)c(=O)n2C [AZD7648] + CN(C)CCCOc1ccc(-c2ccc3ncc4c(c3c2)n(C2CCOCC2)c(=O)n4C)cn1 [AZD0156] (first compound max 10 µM, 7x7, partner max 1 µM) | – | – | 0.167 | 0.0467 | 0.0414 | 0.0335 | 0.072 | 0.0465 | 0.221 | 0.186 | 0.371 | 0.321 | 0.299 | 0.299 | 0.329 | 0.27 | 0.253 | 0.225 | 0.0818 | 0.32
5 | N#Cc1cnc(Nc2cc(NC[C@H]3CNCCO3)c(C(F)(F)F)cn2)cn1 [SRA737] + C=CCn1c(=O)c2cnc(Nc3ccc(N4CCN(C)CC4)cc3)nc2n1-c1cccc(C(C)(C)O)n1 [AZD1775] (first compound max 10 µM, partner max 1 µM) | 0.0096 | 0.442 | 0.263 | – | – | – | – | – | – | – | – | – | – | – | – | – | – | – | – | –
6 | Cc1cc2ncnn2cc1Nc1ncc2c(n1)n(C1CCOCC1)c(=O)n2C [AZD7648] + C=CCn1c(=O)c2cnc(Nc3ccc(N4CCN(C)CC4)cc3)nc2n1-c1cccc(C(C)(C)O)n1 [AZD1775] (first compound max 10 µM, partner max 1 µM) | – | – | 0.289 | 0.0133 | 0.0414 | -0.0029 | -0.012 | 0.0512 | 0.52 | 0.288 | 0.569 | 0.867 | 0.628 | 0.424 | 0.674 | 0.473 | 0.766 | 0.893 | 0.382 | 0.613
7 | Cc1cc2ncnn2cc1Nc1ncc2c(n1)n(C1CCOCC1)c(=O)n2C [AZD7648] + CCN(CCO)CCCOc1ccc2c(Nc3cc(CC(=O)Nc4cccc(F)c4)[nH]n3)ncnc2c1 [AZD2811] (first compound max 10 µM, 7x7, partner max 1 µM) | – | – | 0.209 | -0.0416 | 0.0507 | -0.0176 | 0.0417 | 0.0236 | 0.234 | 0.14 | 0.506 | 0.97 | 0.191 | 0.445 | 0.51 | 0.293 | 0.355 | 0.242 | 0.182 | 0.41
8 | N#Cc1cnc(Nc2cc(NC[C@H]3CNCCO3)c(C(F)(F)F)cn2)cn1 [SRA737] + CCc1c2c(nc3ccc(O)cc13)-c1cc3c(c(=O)n1C2)COC(=O)[C@]3(O)CC [SN-38] (first compound max 10 µM, 7x7, partner max 0.3 µM) | -0.0943 | 0.639 | 0.628 | – | – | – | – | – | – | – | – | – | – | – | – | – | – | – | – | –
9 | N#Cc1cnc(Nc2cc(NC[C@H]3CNCCO3)c(C(F)(F)F)cn2)cn1 [SRA737] + O=c1[nH]cc(F)c(=O)[nH]1 [5-Fluorouracil] (first compound max 10 µM, 7x7, partner max 20 µM) | -0.0137 | 0.369 | 0.439 | – | – | – | – | – | – | – | – | – | – | – | – | – | – | – | – | –
10 | CN(CCO)CC[C@H](CSc1ccccc1)Nc1ccc(S(=O)(=O)NC(=O)c2ccc(N3CCC([C@@H](O)c4ccccc4-c4ccc(Cl)cc4)CC3)cc2)cc1S(=O)(=O)C(F)(F)F [AZD4320] + C[C@@H](Nc1cc(F)cc(F)c1)c1cc(C(=O)N(C)C)cc2c(=O)cc(N3CCOCC3)oc12 [AZD8186] (first compound max 1 µM, 7x7, partner max 3 µM) | – | – | 0.227 | 0.0208 | 0.016 | -0.101 | 0.0837 | -0.0003 | 0.63 | 0.474 | 0.258 | 1 | 0.884 | 0.992 | 0.661 | 0.404 | 0.536 | 0.511 | 0.938 | 0.373
11 | Cc1cc2ncnn2cc1Nc1ncc2c(n1)n(C1CCOCC1)c(=O)n2C [AZD7648] + C[C@@H]1COCCN1C2=NC(=NC(=C2)C3(CC3)[S@](=N)(=O)C)C4=C5C=CNC5=NC=C4 [AZD6738] (first compound max 10 µM, 7x7, partner max 10 µM) | – | – | 0.478 | 0.0462 | 0.0489 | -0.0143 | 0.0308 | 0.0364 | 0.527 | 0.138 | 0.612 | 0.925 | 0.87 | 0.383 | 0.379 | 0.443 | 0.949 | 0.893 | 0.302 | 0.689
12 | CN(CCO)CC[C@H](CSc1ccccc1)Nc1ccc(S(=O)(=O)NC(=O)c2ccc(N3CCC([C@@H](O)c4ccccc4-c4ccc(Cl)cc4)CC3)cc2)cc1S(=O)(=O)C(F)(F)F [AZD4320] + CC(=O)O[C@H]1C(=O)[C@@]2(C)[C@H]([C@H](OC(=O)c3ccccc3)[C@]3(O)C[C@H](OC(=O)[C@H](O)[C@@H](NC(=O)c4ccccc4)c4ccccc4)C(C)=C1C3(C)C)[C@]1(OC(C)=O)CO[C@@H]1C[C@@H]2O [Paclitaxel] (first compound max 1 µM, 7x7, partner max 3 µM) | 0.116 | 0.741 | 0.818 | – | – | – | – | – | – | – | – | – | – | – | – | – | – | – | – | –
13 | N#Cc1cnc(Nc2cc(NC[C@H]3CNCCO3)c(C(F)(F)F)cn2)cn1 [SRA737] + Nc1ccn([C@@H]2O[C@H](CO)[C@@H](O)C2(F)F)c(=O)n1 [Gemcitabine] (first compound max 10 µM, 7x7, partner max 0.3 µM) | -0.101 | 0.389 | 0.544 | – | – | – | – | – | – | – | – | – | – | – | – | – | – | – | – | –
14 | COc1cc2c(cc1OCCCCCOc1cc3c(cc1OC)C(=O)N1C=C(C)C[C@H]1C=N3)N=C[C@@H]1CC(C)=CN1C2=O [SG3199] + O=C(c1cc(Cc2n[nH]c(=O)c3ccccc23)ccc1F)N1CCN(C(=O)C2CC2)CC1 [Olaparib] (first compound max 0.001 µM, 7x7, partner max 10 µM) | – | – | 0.104 | -0.0316 | -0.0144 | -0.0211 | -0.0198 | 0.0008 | 0.14 | 0.136 | 0.14 | 0.337 | 0.389 | 0.125 | 0.32 | 0.0893 | 0.21 | 0 | 0.152 | 0.196
15 | Cc1cc2ncnn2cc1Nc1ncc2c(n1)n(C1CCOCC1)c(=O)n2C [AZD7648] + COc1cc([C@@H]2c3cc4c(cc3[C@@H](O[C@@H]3O[C@@H]5CO[C@@H](C)O[C@H]5[C@H](O)[C@H]3O)[C@H]3COC(=O)[C@H]23)OCO4)cc(OC)c1O [Etoposide] (first compound max 10 µM, 7x7, partner max 10 µM) | 0.0201 | 0.47 | 0.441 | – | – | – | – | – | – | – | – | – | – | – | – | – | – | – | – | –
